Consider 1 compound from US9566261B2 (priority 2013, dated 2017).

This series has as its system lithium-pilocarpine treated rats. As to the kind of experiment: Morris water maze using pilocarpine-induced status epilepticus (SE). Type of series: in vivo. The text has this:
To assess spatial memory and learning in lithium-pilocarpine treated animals and to identify novel compounds that might ameliorate cognitive deficits and neuronal loss associated with pilocarpine-induced status epilepticus (SE). Morris water maze has been used extensively in the study of learning and memory. This test uses a round pool of water in which an escape platform is submerged beneath the surface. The task is to find the hidden platform using only extra maze visual cues (Morris, 1984). Learning can be assessed by quantifying the time that an animal takes to find the platform (latency) over a number of independent trials. […]
Twenty four hours prior to pilocarpine administration, rats were weighed and given lithium chloride (127 mg/kg; i.p.). On the next day, they received pilocarpine hydrochloride (50 mg/kg; i.p.) and were monitored carefully for behavioral seizures. […] All animals were observed and scored for seizure severity for an additional 1.5 hr. […] In our spatial learning protocol rats, received 4 training trials per day wherein the outcome measure evaluated was their ability to find the hidden platform. […] On each of the trials, rats were placed in the water facing the wall at one of the 4 randomly determined starting locations (north, west, east or south) and allowed 120 sec to find the platform. […]

As to `C[C@H](OC(N)=O)[C@@H](O)c1ccccc1Cl` [Compound 1, 1-(2-chlorophenyl)-(S)-1-hydroxypropyl-(S)-2-carbamate], the “average time to find the escape platform (latency)” value (65 mg/kg i.p. 15 minutes after the first stage 3 seizure, vs pilocarpine alone group, FIG. 3) is reported as “significant difference in the Pilo+Compound 1 group as compared to the pilocarpine alone group”. For the same compound, under “125 mg/kg administered 30 min after the first convulsive seizure”, the mortality entry is “death of all animals”.
